Measured values: publication PMC8405091, “Microwave-assisted Phospha-Michael addition reactions in the 13α-oestrone series and in vitro antiproliferative properties” (Journal of Enzyme Inhibition and Medicinal Chemistry, 2021)

Legend:
UPCI-SCC-131 cells = assay: MTT antiproliferative assay, UPCI-SCC-131; format: cell-based, human; settings: for Growth inhibition; % ± SEM: 72 h
Description: (§1) The antiproliferative properties of the newly synthesized compounds (9–20) and their starting materials (4 and 5) were determined on a panel of human adherent cancer cell lines. MCF-7, MDA-MB-231 and T47D were isolated from breast cancers differing in biochemical background, while A2780 cells were isolated from ovarian cancer. HeLa and SiHa are cervical cancer cell lines positive for HPV-18 and HPV-16, respectively, while C33-A cervical cancer cells are negative for HPV. Moreover, two oropharyngeal cancer cell lines were also utilized: the HPV-negative UPCI-SCC-131 and HPV-16 positive UPCI-SCC-154. The cancer selectivity of compounds was tested on the non-cancerous mouse embryo fibroblast cell line NIH/3T3. All cell lines were purchased from European Collection of Cell Cultures (ECCAC, Salisbury, UK) exception for SiHa and C33-A (American Tissue Culture Collection, Manassas, VA, USA) and HN-SCC-131 and UPCI-SCC-154 (German Collection of Microorganisms and Cell Cultures GmbH, Braunschweig, Germany). Cells were cultivated in minimal essential medium supplemented with 10% fetal bovine serum, 1% non-essential amino acids and an antibiotic–antimycotic mixture. The medium of oropharyngeal cancer cells additionally contained 2.0 mM L-glutamine. All media and supplements were obtained from Lonza Group Ltd., Basel, Switzerland. Near-confluent cancer cells were seeded onto a 96-well microplate at a density of 5,000 cells/well, except for C33-A which were seeded at 10,000/well. After overnight standing, new medium containing the tested compounds at 10 and 30 µM final concentration was added. After incubation for 72 h at 37 °C in humidified air containing 5% CO2, the living cells were assayed by the addition of 20 μL of 5 mg/ml 3-(4,5-dimethylthiazol-2-yl)-2,5-diphenyltetrazolium bromide (MTT) solution. MTT was converted by intact mitochondrial reductase and precipitated as purple crystals during a 4-h contact period. The medium was next removed and the precipitated formazan crystals were dissolved in 100 μL of DMSO during a 60-min period of shaking at 37 ^оC.
(§2) All in vitro experiments were carried out twice with five parallels. Stock solutions of the tested substances (10 mM) were prepared in DMSO. […] Cisplatin (Ebewe Pharma GmbH, Unterach, Austria) was used as positive control.

UPCI-SCC-154 cells = assay: MTT antiproliferative assay, UPCI-SCC-154; format: cell-based, human; settings: for Growth inhibition; % ± SEM: 72 h
Description: as §1, §2

HeLa cells = assay: MTT antiproliferative assay, HeLa; format: cell-based, human; settings: 72 h
Description: as §1, §2

SiHa cells = assay: MTT antiproliferative assay, SiHa; format: cell-based, human; settings: 72 h
Description: as §1, §2

C33-A cells = assay: MTT antiproliferative assay, C33-A; format: cell-based, human; settings: C33-A, 72 h
Description: as §1, §2

A2780 cells = assay: MTT antiproliferative assay, A2780; format: cell-based, human; settings: for Growth inhibition; % ± SEM: 72 h
Description: as §1, §2

MCF-7 cells = assay: MTT antiproliferative assay, MCF-7; format: cell-based, human; settings: for Growth inhibition; % ± SEM: 72 h
Description: as §1, §2

MDA-MB-231 cells = assay: MTT antiproliferative assay, MDA-MB-231; format: cell-based, human; settings: for Growth inhibition; % ± SEM: 72 h
Description: as §1, §2

T47D cells = assay: MTT antiproliferative assay, T47D; format: cell-based, human; settings: 72 h
Description: as §1, §2

[1] = system: non-cancerous mouse embryo fibroblast (NIH/3T3) cells; assay: MTT assay on non-cancerous fibroblasts (tumour selectivity); format: cell-based; settings: for Growth inhibition; % ± SEM: 72 h
Description: as §1, §2

[2] = read-out: calculated IC50 value

SMILES: N.N.[Cl][Pt][Cl] [CIS, Cisplatin, reference compound]
- Growth inhibition; % ± SEM (UPCI-SCC-131 cells; UPCI-SCC-131, 10 μM): 95.63 ± 1.49%
- Growth inhibition; % ± SEM (UPCI-SCC-131 cells; UPCI-SCC-131, 30 μM): 95.09 ± 1.57%
- IC50 (UPCI-SCC-131 cells; UPCI-SCC-131, 72 h, read-out: calculated IC50 value): 1.22 µM
- Growth inhibition; % ± SEM (UPCI-SCC-154 cells; UPCI-SCC-154, 10 μM): 87.40 ± 1.72%
- Growth inhibition; % ± SEM (UPCI-SCC-154 cells; UPCI-SCC-154, 30 μM): 92.72 ± 1.67%
- IC50 (UPCI-SCC-154 cells; UPCI-SCC-154, 72 h, read-out: calculated IC50 value): 1.29 µM
- Growth inhibition; % ± SEM (HeLa cells; 10 μM): 42.61 ± 2.33%
- Growth inhibition; % ± SEM (HeLa cells; 30 μM): 99.93 ± 0.26%
- IC50 (HeLa cells; [2]): 12.4 µM
- Growth inhibition; % ± SEM (SiHa cells; 10 μM): 88.64 ± 0.50%
- Growth inhibition; % ± SEM (SiHa cells; 30 μM): 90.18 ± 1.78%
- IC50 (SiHa cells; [2]): 7.84 µM
- Growth inhibition; % ± SEM (C33-A cells; 10 μM): 85.98 ± 1.05%
- Growth inhibition; % ± SEM (C33-A cells; 30 μM): 98.66 ± 0.21%
- IC50 (C33-A cells; [2]): 4.13 µM
- Growth inhibition; % ± SEM (A2780 cells; A2780, 10 μM): 83.6 ± 1.2%
- Growth inhibition; % ± SEM (A2780 cells; A2780, 30 μM): 95.0 ± 0.3%
- IC50 (A2780 cells; A2780, 72 h, read-out: calculated IC50 value): 1.3 µM
- Growth inhibition; % ± SEM (MCF-7 cells; MCF-7, 10 μM): 66.91 ± 1.81%
- Growth inhibition; % ± SEM (MCF-7 cells; MCF-7, 30 μM): 96.80 ± 0.35%
- IC50 (MCF-7 cells; MCF-7, 72 h, read-out: calculated IC50 value): 5.78 µM
- Growth inhibition; % ± SEM (MDA-MB-231 cells; MDA-MB-231, 10 μM): – (Inhibition values <20% are not presented.)
- Growth inhibition; % ± SEM (MDA-MB-231 cells; MDA-MB-231, 30 μM): 71.47 ± 1.20%
- IC50 (MDA-MB-231 cells; MDA-MB-231, 72 h, read-out: calculated IC50 value): 19.1 µM
- Growth inhibition; % ± SEM (T47D cells; 10 μM): 40.41 ± 1.25%
- Growth inhibition; % ± SEM (T47D cells; 30 μM): 56.84 ± 1.16%
- IC50 (T47D cells; [2]): 19.2 µM
- Growth inhibition; % ± SEM ([1]; NIH/3T3, 10 μM): 76.74 ± 1.26%
- Growth inhibition; % ± SEM ([1]; NIH/3T3, 30 μM): 96.90 ± 0.25%
- IC50 ([1]; NIH/3T3, 72 h, read-out: calculated IC50 value): 4.73 µM
